A short description of this data set: solvent given as SMILES.
The mark [1] stands for this setting: in c1cc(-c2cccc(-n3c4ccccc4c4ccccc43)c2)cc(-n2c3ccccc3c3ccccc32)c1.

The structures appear in SMILES notation.

Turning to `CC(C)[Si]1(C(C)C)c2ccccc2-c2ccc(N(C)C)cc21`, the fluorescence lifetime is, setting by setting: (in C1CCCCC1) 6.5 ns; (in ClCCl) 4 ns.
As for `COc1cccc(/C=C/c2ccccc2)c1`, the fluorescence lifetime (in CC#N) was found to be 0.93 ns.
The same measure, in the same setting: then `COc1cc2cc(C#Cc3ccc(/C=C(\C#N)C(=O)O)cc3)c(=O)oc2cc1OC`, with 1.16 ns.
The compound `COCCOCCOCCOCC(COCCOCCOCCOC)Oc1cc(/C=C/c2ccc(/C=C(\C#N)c3ccccc3)cc2)c(OC(COCCOCCOCCOC)COCCOCCOCCOC)cc1/C=C/c1ccc(/C=C(\C#N)c2ccccc2)cc1` displayed a fluorescence lifetime (in ClCCl) of 1.6 ns.
Consider `CC(=O)[B-]1(C(C)=O)OC(C)=CC(c2ccc3ccccc3c2)=[O+]1`, for which the fluorescence lifetime by setting is: (in CC#N) 13.6 ns; (in ClC(Cl)(Cl)Cl) 1.6 ns.
The compound `Cc1cc2nc3c(=O)[nH]c(=O)n(C)c3nc2cc1C` returned a fluorescence lifetime (in CC#N) of 0.63 ns.
In turn, `O=C1NC(=O)c2ccc3c4ccc5c6c(ccc(c7ccc1c2c73)c64)C(=O)N(c1ccc(O)cc1)C5=O` showed a fluorescence lifetime (in CN(C)C=O) of 2.8 ns.
Turning to `CC(C)(C)C#Cc1ccc2c3cccc4cccc(c5cccc1c52)c43`, under “in C1CCCCC1”, the fluorescence lifetime came out at 4.3 ns.
`CNC1=C2C=CC=[N+]2[B-](F)(F)n2cccc21` came in with a fluorescence lifetime (in C1CCCCC1) of 4.67 ns; a fluorescence lifetime (in CC(C)=O) of 0.726 ns; a fluorescence lifetime (in CCO) of 0.774 ns; a fluorescence lifetime (in CCOC(C)=O) of 2.04 ns; a fluorescence lifetime (in CO) of 0.523 ns; a fluorescence lifetime (in OCC(F)(F)F) of 1.4 ns.
Regarding `O=c1c2ccccc2n2c3ccccc3c(=O)c3cc(-c4ccccc4)cc1c32`, the fluorescence lifetime was determined as 5.47 ns under setting [1] and 5.47 ns (in c1cc(-n2c3ccccc3c3ccccc32)cc(-n2c3ccccc3c3ccccc32)c1).
Turning to `Cc1ccc2c(c1)C1(c3ccccc3Oc3ccccc31)c1cc(C)ccc1N2c1ccc(-c2nc(-c3ccccc3)cc(-c3ccccc3)n2)cc1`, the fluorescence lifetime (in O=P(c1ccccc1)(c1ccccc1)c1ccc2oc3ccc(P(=O)(c4ccccc4)c4ccccc4)cc3c2c1) stood at 11 ns.
Consider `CSc1nc(-c2ccc(-n3c4ccccc4c4ccccc43)cc2)cc(-c2ccc(-n3c4ccccc4c4ccccc43)cc2)n1`, for which the fluorescence lifetime reads like this: (in C1CCOC1) 3.22 ns; (in CN(C)C=O) 7.39 ns; (in Cc1ccccc1) 1.45 ns; (in ClC(Cl)Cl) 3.24 ns.
`CC(C)(C)c1ccc2c(c1)c1cc(C(C)(C)C)ccc1n2-c1cc(C(=O)c2ccccn2)cc(-n2c3ccc(C(C)(C)C)cc3c3cc(C(C)(C)C)ccc32)c1` showed a fluorescence lifetime under setting [1] of 5.3 ns.
`O=S1(=O)c2ccc(-c3ccc4c(c3)c3ccccc3n4-c3ccccc3)cc2C2(c3cc(-c4ccc5c(c4)c4ccccc4n5-c4ccccc4)ccc31)c1cc(-c3ccc4c(c3)c3ccccc3n4-c3ccccc3)ccc1S(=O)(=O)c1ccc(-c3ccc4c(c3)c3ccccc3n4-c3ccccc3)cc12` had a fluorescence lifetime (in CC1CCCO1) of 100 ns.
For `c1ccc(-n2cccc2)cc1`, the fluorescence lifetime came out at 3.6 ns (in CC#N) and 3.5 ns (in CCCCCC).
For the compound `CC1=CC(C)=[N+]2C1=C(c1ccc(I)cc1)c1c(C)cc(C)n1[B-]2(Oc1ccccc1)Oc1ccccc1`, the fluorescence lifetime (in ClC(Cl)Cl) was 0.38 ns.
The same measure, in the same setting: then `CCN(CC)c1ccc2cc(-c3ccc(-c4ccc5ccc6c(-c7ccc(-c8cc9ccc(N(CC)CC)cc9oc8=O)cc7)ccc7ccc4c5c76)cc3)c(=O)oc2c1`, with 8.46 ns.
Regarding `CN(C)c1ccc(C(=Cc2ccc(C=O)cc2)c2ccc(N(C)C)cc2)cc1`, for the setting “in C1CCOC1”, the fluorescence lifetime amounted to 7 ns.
Take `N#CC=C(c1ccc(N2c3ccccc3Oc3ccccc32)cc1)c1ccc(N2c3ccccc3Oc3ccccc32)cc1`: the fluorescence lifetime (in Cc1ccccc1) amounted to 5.84 ns.
For the compound `O=[N+]([O-])c1ccc(F)cc1C1CC(c2cccc3ccccc23)=NN1c1ccccc1` (configuration not stated), the fluorescence lifetime is 3.08 ns (in C1CCCCC1); 3.76 ns (in C1CCOC1); 3.77 ns (in C1COCCO1); 3.81 ns (in CC#N); 2.85 ns (in CC(C)O); 3.67 ns (in CCOC(C)=O). The fluorescence lifetime came to 3.53 ns (in CCOCC); 2.86 ns (in CO); 3.29 ns (in Cc1ccccc1); 3.68 ns (in ClC(Cl)Cl); 1.4 ns (in O).
For the setting “in ClCCl”, `COC(=O)c1[nH]c(-c2ccccc2)c2nnc3ccc(OC)cc3c12` returned a fluorescence lifetime of 2.23 ns.
With `Cc1cc(C)c(B(c2ccccc2N(c2ccccc2)c2ccccc2)c2c(C)cc(C)cc2C)c(C)c1`, where the note is “in Cc1ccccc1”, the fluorescence lifetime is 27 ns.
Under “in CC#N”, `C[n+]1ccn(CCCCc2ccc3c(c2)c2ccccc2n3-c2cc(C#N)c(C#N)cc2-n2c3ccccc3c3cc(CCCCn4cc[n+](C)c4)ccc32)c1` gave a fluorescence lifetime of 4.97 ns.
Compound `CN(C)c1ccc(C(=Cc2ccc(/C=C/c3ccc(C#N)cc3)cc2)c2ccc(N(C)C)cc2)cc1` came in with a fluorescence lifetime (in C1CCOC1) of 1 ns.
On to `Cc1cc(C)c(B2c3cc(C)ccc3N3c4ccc(C)cc4B(c4c(C)cc(C)cc4C)c4cc(C)cc2c43)c(C)c1`, for which the fluorescence lifetime (in Cc1ccccc1-c1cccc(Oc2cc3c4c(c2)Oc2cc(-c5ccccc5C)ccc2B4c2ccc(-c4ccccc4C)cc2O3)c1) was 6.9 ns.
The compound `c1ccc(N2c3ccc4ccccc4c3-c3c4ccccc4cn[n+]3[B-]2(c2ccccc2)c2ccccc2)cc1` displayed a fluorescence lifetime (in Cc1ccccc1) of 2.56 ns.
Turning to `COc1cc(/C=C2/SC(=O)NC2=O)cc(OC)c1O`, the fluorescence lifetime is 0.941 ns (in C1CCCCC1); 1.44 ns (in C1COCCO1); 0.521 ns (in CC#N); 4.47 ns (in CN(C)C=O); 0.39 ns (in CO); 0.34 ns (in O). Besides, the fluorescence lifetime reads like this: (in OCC(O)CO) 4.92 ns; (in OCCO) 2.25 ns.
As to `Cc1ccc(C)n1-c1ccccc1`, the fluorescence lifetime (in CC#N) came out at 5 ns.
Take `NNC(=O)NNN1C(=O)c2cc(S(=O)(=O)[O-])cc3c(N)c(S(=O)(=O)[O-])cc(c23)C1=O`: the fluorescence lifetime by setting is: (in C1COCCO1) 3.4 ns; (in CC#N) 10.7 ns; (in CC(C)=O) 4.6 ns; (in CC(C)O) 9.6 ns; (in CCCCCCCCO) 8.8 ns; (in CCO) 9.2 ns. The fluorescence lifetime is, setting by setting: (in CCOC(C)=O) 2.5 ns; (in CO) 9.5 ns; (in CS(C)=O) 10.7 ns; (in O) 5.1 ns; (in OCCO) 7.9 ns; (in c1ccncc1) 6.3 ns.
Take `c1ccc(-p2c3ccccc3c3sc4ccccc4c32)cc1` (configuration not stated): the fluorescence lifetime (in ClCCl) was 3.57 ns.
The same measure, in the same setting: then `CCN(CC)c1ccc2c(c1)oc(=O)c1c(C)nc3c(c(-c4ccccc4)nn3-c3ccccc3)c12`, with 3.51 ns.
On to `COc1ccc2cc(-c3ccccc3CC#N)c(=O)oc2c1`, for which, under “in ClC(Cl)Cl”, the fluorescence lifetime amounted to 2.4 ns.
`c1ccc2c(c1)c1ccccc1c1[nH]c(-c3ccc(-c4nc5c6ccccc6c6ccccc6c5[nH]4)cc3)nc21` returned a fluorescence lifetime (in CS(C)=O) of 1.25 ns.
`O=C([O-])c1c2ccccc2c(C(=O)[O-])c2ccccc12`: the fluorescence lifetime (in CN(C)C=O) stood at 2.2 ns.
For the compound `COC(=O)c1c(C(=O)OC)c2ccc(-c3ccccc3)nn2c1C`, under “in CCCCCC”, the fluorescence lifetime stood at 21 ns.
Compound `COc1ccc(-c2ccc(OC)cc2)cc1` returned a fluorescence lifetime (in C1CCCCC1) of 17.7 ns.
Consider `CC[n+]1c(C=C2C(=O)C(C=C3Sc4cc(Cl)ccc4N3C)=C2[O-])[se]c2ccccc21`, for which the fluorescence lifetime is 0.83 ns (in CO) and 4.41 ns (in ClC(Cl)Cl).
For `CC1=CC(C)=[N+]2C1=Cc1c3ccccc3c(C#Cc3ccsc3)n1[B-]2(F)F`, the fluorescence lifetime runs as follows: (in CCCCCC) 5.54 ns; (in CCCCCCCCO) 4.91 ns; (in CCOC(C)=O) 5.21 ns; (in CN(C)C=O) 4.8 ns.
As for `C(=C\c1c2ccccc2cc2ccccc12)/c1cnc2ccccc2c1`, the fluorescence lifetime by setting is: (in CC1CCCCC1) 3.2 ns; (in CC#N) 3 ns.
`Cc1cc(C)c(C2=C(c3c(C)sc(-c4ccc(-c5nc(-c6ccccc6)c(-c6ccccc6)[nH]5)cc4)c3C)C(F)(F)C(F)(F)C2(F)F)s1` showed a fluorescence lifetime (in C1CCOC1) of 0.42 ns.
For `c1ccc(N(c2ccccc2)c2ccc3c4cccc5c(N(c6ccccc6)c6ccccc6)ccc(c6cccc2c63)c54)cc1`, where the note is “in ClCCl”, the fluorescence lifetime was determined as 4.71 ns.
In turn, `Cc1cc2nc3c(=O)n(C)c(=O)n(C)c3nc2cc1C` yielded a fluorescence lifetime (in CC#N) of 0.64 ns.
For the setting “in Cc1ccccc1”, `BrCCCCCCCCCCCCOc1cc2ccc3cccc4ccc(c1)c2c34` yielded a fluorescence lifetime of 60 ns.
`COc1ccc(C2=CC(c3cc(OC)cc(OC)c3)=[O+][B-](F)(F)O2)cc1` yielded a fluorescence lifetime (in ClCCl) of 7.4 ns.
Regarding `CC(C)c1cc(C(C)C)c(B2c3ccccc3Oc3cc(-n4c5ccccc5c5ccc6c(c7ccccc7n6-c6ccccc6)c54)ccc32)c(C(C)C)c1`, the fluorescence lifetime by setting is: (in CC(C)c1cc(C(C)C)c(-c2ccc(-n3c4ccccc4n4c5ccccc5nc34)nc2)c(C(C)C)c1) 29.6 ns; (in O=P(c1ccccc1)(c1ccccc1)c1ccccc1Oc1ccccc1P(=O)(c1ccccc1)c1ccccc1) 27 ns.
For the setting “in CC#N”, `CCNc1cc2oc(=O)cc(C)c2cc1C` registered a fluorescence lifetime of 3.5 ns.
`CCC12C(=C3C(=C4c5ccc(-c6ccc(CO)cc6)cc5S(=O)(=O)C41CC)C(F)(F)C(F)(F)C3(F)F)c1ccc(-c3ccc(CO)cc3)cc1S2(=O)=O` (configuration not stated) had a fluorescence lifetime (in C1COCCO1) of 2.9 ns.
Take `F[B-]1(F)n2c(c3ccccc3c2-c2ccccc2)C(c2ccccc2)=C2c3ccccc3C(c3ccccc3)=[N+]21`: the fluorescence lifetime (in ClCCl) came to 5.2 ns.
Consider `N#C/C(=C\c1ccncc1)c1nc(-c2ccccc2)cs1`, for which the fluorescence lifetime (in CC#N) was 4.85 ns.
In turn, `CC1=C(c2cccs2)C(C)=[N+]2C1=C(c1ccc(O)cc1)c1c(C)c(-c3cccs3)c(C)n1[B-]2(F)F` came in with a fluorescence lifetime (in Cc1ccccc1) of 3.8 ns.
For the compound `FC(F)(F)c1cc2n(n1)[B-]1(c3ccccc3-c3ccccc31)[n+]1ccc3ccccc3c1-2`, the fluorescence lifetime is, setting by setting: (in C1CCCCC1) 1.22 ns; (in Cc1ccccc1) 1.22 ns; (in ClCCl) 13.7 ns.
`CN(C)c1ccc(N(C)C)cc1` displayed a fluorescence lifetime (in C1CCCCC1) of 6.1 ns.
As to `F[B-]1(F)n2c(c3cccc4cccc2c43)=Nc2sc3ccccc3[n+]21`, the fluorescence lifetime (in ClCCl) was 6.6 ns.
Compound `c1cc2ccc3ccc4cc3c2cc1c1ccc2ccc3ccc(cc3c2c1)c1ccc2ccc3ccc4cc3c2c1` registered a fluorescence lifetime (in Cc1ccccc1) of 6.5 ns.

(Values after the Deep4Chem optical property database.)
